Assay results: paper PMC6689897, “Drugging an undruggable pocket on KRAS” (Proceedings of the National Academy of Sciences of the …, 2019)

Test system: NCI-H358 cells
Experiment: pERK quantification (Meso Scale Discovery)
Format: cell-based, human
Protocol: Active RAS signals through RAF and MEK to induce phosphorylation of ERK (phospho-ERK). Phospho-ERK levels were quantified using a plate-based electrochemiluminescent assay (MESO SCALE DISCOVERY). […]
252 (175 cm2) using RPMI medium supplemented with 10% fetal bovine serum. Cultures
253 were incubated at 37 °C and 5% CO2 in a humidified atmosphere, with medium change
254 or subcultivation 2-3 times a week. […]
257 atmosphere, with medium change or subcultivation 2-3 times a week. In case starvation
258 conditions were used in combination with EGF stimulation, cells were kept in medium
260 stimulation (50ng/mL) for 10 minutes. […]
308 The next day the compounds (30µL of serial dilutions) were added in triplicates. The
310 nano molar minimum. Compounds (Stock: 10mM in 100% DMSO) were diluted in
311 medium. Cells were incubated at 37°C and 5% CO2 in a humidified atmosphere for 14
312 days. […]
315 wavelength was 544/15 nm, emission 590 nm. Data were fitted by iterative calculation
316 using a sigmoidal curve analysis program based on GraphPAD Prism with variable hill
319 MAPK pathway signaling (pERK, pAKT quantification)
320 MSD 96-well multispot assays for Phospho/Total ERK1/2 and Phospho(Ser473)/Total
321 AKT whole cell lysate kits (Meso Scale Discovery, Gaithersburg, MD, #K15107D,
322 #K15100D) were used according to the manufacturer’s instructions. Briefly, 50.000
323 cells were seeded per well and grown in 96 well plates. Cells were washed in ice cold
324 PBS and lysed in 50µL ice-cold lysis buffer supplemented with the provided protease
325 inhibitors. MSD plates were blocked for 1h, washed and 40µL of lysate was added in
326 duplicates to wells and incubated at room temperature for 3 hours while shaking at
327 400rpm. To measure the amount of phosphorylated AKT or ERK, the specific primary
328 antibody was added for 1 hour. After washing, read buffer was added and the plates
329 were measured on a SECTOR 6000 instrument (Meso Scale Discovery). Samples were
330 normalized to total ERK or total AKT values, respectively.
332 RAS GTP detection (Ras G-LISA Activation assay):
333 Ras-GTP levels were analyzed using a Ras G-LISA assay kit (Cytoskeleton Inc.,
335 600.000 cells were seeded in 6 wells and grown to 70% confluence. Cells were washed
337 provided protease inhibitor cocktail. Lysates were quickly frozen in liquid nitrogen
338 and stored at -80°C until further usage. After normalizing protein concentration, 40µg
339 of protein was added in duplicates to wells of the Ras G-LISA plate coated with Ras
340 GTP-binding protein and incubated at 4°C for 30 minutes while shaking at 400rpm. […]
344 HRP detection reagent. Absorbance was measured by 490nm using an EnSpire
345 Multimode Reader (Perkin Elmer). Background was determined by a negative control […]

## C=CC(=O)N1CCN(c2ncnc3c(F)c(-c4c(O)cccc4F)c(Cl)cc23)CC1 [ARS-1620, reference compound]
High growth factor conditions, 2 h
  inhibition of pERK compared with 1: similar, albeit more extended, inhibition of pERK

## Cn1cnc(Cn2ccc3ccc(CNCc4[nH]c5ccccc5c4[C@H]4NC(=O)c5ccc(O)cc54)cc32)c1 [Compound 1]
Homo sapiens, NCI-H358, high growth factor conditions, 2 h, read-out: EC50 inhibition of pERK relative to total ERK
  EC50: 5.8 µM
Starved 24 h low serum, 2 h compound, then EGF
  pERK levels: dose-dependently reduced

## CN(C)Cc1[nH]c2ccccc2c1[C@H]1NC(=O)c2ccc(O)cc21 [Compound 18]
At 50 µM, 2 h after treatment
  decrease in phospho-ERK levels: almost complete inhibition
